Assay results as given in ChEMBL document CHEMBL1201862, “PubChem BioAssay data set” (2004).
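96-well plates; 48 h exposure; 5 concentrations. Endpoints by linear interpolation between flanking doses. Not reached: highest tested concentration assigned. GI50 is the concentration that inhibits growth by half.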 The source made the active and inactive calls. Rule as the data show it: active = GI50 up to about 1.1 µM and inactive = higher.

Experiments:
Assay in all cases: NCI tumour cell line growth inhibition, 48 h
RXF 393 = tested on: RXF 393
M19-MEL = tested on: M19-MEL
MOLT-4 = tested on: MOLT-4
SNB-78 = tested on: SNB-78
UACC-62 = tested on: UACC-62
KM12 = tested on: KM12
SNB-75 = tested on: SNB-75
SN12C = tested on: SN12C
SNB-19 = tested on: SNB-19
SK-MEL-28 = tested on: SK-MEL-28
OVCAR-3 = tested on: OVCAR-3
NCI-H460 = tested on: NCI-H460
HOP-92 = tested on: HOP-92
HCT-15 = tested on: HCT-15
CCRF-CEM = tested on: CCRF-CEM
OVCAR-5 = tested on: OVCAR-5

| Compound | GI50 (RXF 393) | GI50 (M19-MEL) | GI50 (MOLT-4) | GI50 (SNB-78) | GI50 (UACC-62) | GI50 (KM12) | GI50 (SNB-75) | GI50 (SN12C) | GI50 (SNB-19) | GI50 (SK-MEL-28) | GI50 (OVCAR-3) | GI50 (NCI-H460) | GI50 (HOP-92) | GI50 (HCT-15) [µM] | GI50 (CCRF-CEM) | GI50 (OVCAR-5) |
| --- | --- | --- | --- | --- | --- | --- | --- | --- | --- | --- | --- | --- | --- | --- | --- | --- |
| O=C(Cn1cc(I)c(C(=O)NCC(O)CO)n1)NCC(O)CO (stereo not drawn) | > 100 µM (inactive) | > 100 µM (inactive) | > 100 µM (inactive) | > 100 µM (inactive) | > 100 µM (inactive) | > 100 µM (inactive) | > 100 µM (inactive) | > 100 µM (inactive) | > 100 µM (inactive) | > 100 µM (inactive) | > 100 µM (inactive) | > 100 µM (inactive) | > 100 µM (inactive) | > 100 | > 100 µM (inactive) |  |
| CCCCCCCCCCCCCP(=O)(OC)OC | 31.8 µM (inactive) | 19.3 µM (inactive) | 19.1 µM (inactive) | 17.5 µM (inactive) | 17.9 µM (inactive) | 17.5 µM (inactive) | 21.2 µM (inactive) | 20.2 µM (inactive) | 20.8 µM (inactive) | 24.3 µM (inactive) | 20.2 µM (inactive) | 17.1 µM (inactive) | 16.9 µM (inactive) | 17.7 | 20.8 µM (inactive) | 16.5 µM (inactive) |
| Nc1ccc(C(=O)N/C(=C\c2cccc([N+](=O)[O-])c2)c2nc3ccccc3[nH]2)cc1 | 24.9 µM (inactive) | > 100 µM (inactive) | > 100 µM (inactive) | 57.3 µM (inactive) | 46 µM (inactive) | > 100 µM (inactive) | 23.3 µM (inactive) | 83.9 µM (inactive) | 40.6 µM (inactive) | > 92.9 µM (inactive) | 50.2 µM (inactive) | 74.8 µM (inactive) | 23.6 µM (inactive) | 76.6 | > 100 µM (inactive) | > 100 µM (inactive) |
| Cc1ccc(NC(=O)CC2SC(Nc3ccc(Cl)cc3)=NC2=O)cc1C (stereo not drawn) | 17.1 µM (inactive) | 17.7 µM (inactive) | 2.38 µM (inactive) | 21.1 µM (inactive) | 18.3 µM (inactive) | 19.9 µM (inactive) | 17.7 µM (inactive) | 17.9 µM (inactive) | > 78.3 µM (inactive) | 19.5 µM (inactive) | 18.9 µM (inactive) | 13.5 µM (inactive) | 14.4 µM (inactive) | 15.2 | 3.24 µM (inactive) | 19 µM (inactive) |
| O=C(O)C(C(=O)C(=O)C(C(=O)O)c1ccc(Cl)cc1)c1ccc(Cl)cc1 (stereo not drawn) | 3.92 µM (inactive) | 3.39 µM (inactive) | 1.72 µM (inactive) | 3.27 µM (inactive) | 1.87 µM (inactive) | 3.75 µM (inactive) | 3.32 µM (inactive) | 2.94 µM (inactive) | 3.68 µM (inactive) | 4.54 µM (inactive) | 2.9 µM (inactive) | 3.46 µM (inactive) | 3.11 µM (inactive) |  | 2.34 µM (inactive) | 4.25 µM (inactive) |
| CCCN/C(N)=N/C#N | > 100 µM (inactive) | 77.6 µM (inactive) | > 100 µM (inactive) | > 100 µM (inactive) | > 100 µM (inactive) | > 100 µM (inactive) | > 100 µM (inactive) | > 100 µM (inactive) | > 100 µM (inactive) | > 100 µM (inactive) | > 100 µM (inactive) | > 100 µM (inactive) | > 100 µM (inactive) | 19.4 |  | > 100 µM (inactive) |
| CC(=O)c1ccc(NC(=O)COC(=O)c2cccc3c(=O)c4ccccc4[nH]c23)cc1 | 18 µM (inactive) | 25.5 µM (inactive) | > 100 µM (inactive) | 31.4 µM (inactive) | 24.9 µM (inactive) | 12.9 µM (inactive) | 10.1 µM (inactive) | 16.1 µM (inactive) | 22.5 µM (inactive) | 40.6 µM (inactive) | 27.2 µM (inactive) | 22.6 µM (inactive) | 25.9 µM (inactive) |  | > 100 µM (inactive) |  |
| COc1cccc(C=O)c1C(=O)c1cc(O)ccc1O | 17.9 µM (inactive) | 30.8 µM (inactive) | 3.13 µM (inactive) | > 45.9 µM (inactive) | 54.8 µM (inactive) | > 100 µM (inactive) | > 95.3 µM (inactive) | > 84.1 µM (inactive) | > 100 µM (inactive) | 34.1 µM (inactive) | 20.2 µM (inactive) | > 100 µM (inactive) | 17.7 µM (inactive) | 19.5 | 3.91 µM (inactive) | > 100 µM (inactive) |
| C=C1C(=O)c2cc3c(cc2C(c2cc(OC)c(OC)c(OC)c2)[C@@H]1C(=O)O)OCO3 (stereo partly drawn) | 43.9 µM (inactive) | 49.1 µM (inactive) | 37.9 µM (inactive) | 49.1 µM (inactive) | 27 µM (inactive) | 44.5 µM (inactive) | 20.5 µM (inactive) | 43.1 µM (inactive) |  | 69.7 µM (inactive) | 23.2 µM (inactive) | 37.1 µM (inactive) | 15.5 µM (inactive) | 38 | 33 µM (inactive) |  |
| CC12CC[C@H](O)C(C)(C)[C@H]1CC[C@](C)(O)C2COc1ccc2ccc(=O)oc2c1 (stereo partly drawn) | > 100 µM (inactive) | > 100 µM (inactive) | 80.9 µM (inactive) | 48.4 µM (inactive) | 64.4 µM (inactive) | > 100 µM (inactive) | 62.2 µM (inactive) | > 100 µM (inactive) | > 100 µM (inactive) | > 100 µM (inactive) | > 100 µM (inactive) | > 100 µM (inactive) | > 100 µM (inactive) | > 100 | > 100 µM (inactive) |  |
| Clc1ccc(C(c2ccc(Cl)cc2)c2ccccn2)cc1 | 14.5 µM (inactive) | 31.4 µM (inactive) | 21.4 µM (inactive) | 33.8 µM (inactive) | 16.4 µM (inactive) | 19.1 µM (inactive) | 44.9 µM (inactive) | 17.3 µM (inactive) | 22.3 µM (inactive) | > 10 µM (inactive) | > 10 µM (inactive) | 17.1 µM (inactive) | 15.8 µM (inactive) | 17.3 | 21.5 µM (inactive) | 14.9 µM (inactive) |
